The source of these data is patent publication US12643871B2, “Aryl formamide compound containing chiral sulfur oxide or salt thereof, preparation method, herbicidal composition and use thereof” (Qingdao Kingagroot Chemical Compound Co., Ltd., priority 2019, dated 2026).

What all share (type): in vivo
The subject of data set [1] is key weeds such as Digitaria sanguinalis, Leptochloa chinensis. In words: Comparison experiment (post-emergence, Tables 4-7), herbicidal activity on weeds not listed separately. The conditions noted are these: for activity to key weeds such as Digitaria sanguinalis, Leptochloa chinensis compared with the corresponding racemate or S configuration: dose of 125, 60, 30, 15 g/ha. The source says: (§1) The above growth control rates are fresh weight control rates.
(§2) Experiment on weeding effect in post-emergence stage: monocotyledonous and dicotyledonous weed seeds (Descurainia sophia, Capsella bursa-pastoris, Galium aparine, Stellaria media, Lithospermum arvense, Rorippa indica, Alopecurus aequalis, Beckmannia syzigachne, Sclerochloa dura, Phleum paniculatum, Bromus japonicus, Aegilops tauschii, Phalaris arundinacea, Amaranthus retroflexus, Chenopodiaceae, Commelina communis, Sonchus arvensis, convolvulus arvensis, Cirsium setosum, Solanum nigrum, Acalypha australis, Digitaria sanguinalis, Echinochloa crusgalli, Setaria viridis, Setaria glauca, Leptochloa chinensis, Monochoria vaginalis, Sagittaria trifolia, Scirpus juncoides, Cyperus rotundus, Cyperus iria, Cyperus difformis, Fimbristylis, Portulaca oleracea, Xanthium sibiricum, Pharbitis nil) and major crop seeds (wheat, corn, rice, soybean, cotton, oilseed rape, millet, sorghum, potato, sesame, ricinus) were placed in plastic pots filled with soil, then covered with 0.5-2 cm of soil, allowed to grow in a good greenhouse environment. After 2 weeks of sowing, the test plants were treated in the 2 leaf stage. The tested compounds of the present invention were respectively dissolved in acetone, then added with Tween 80 and 1.5 liter/ha of emulsifiable concentrate of methyl oleate as synergist, diluted with a certain amount of water to obtain a solution with a certain concentration, and sprayed with a spray tower onto the plants. After the application, the plants were cultured for 15 days in the greenhouse, and then the experimental results of the weeding were counted. The doses of the used compounds were 500, 250, 125, 60, 30, 15 g/ha, and the averages were obtained by repeating for three times.
(§3) If there is no clear marker, the post-seedling test conditions are the same as above, and the experimental results are shown in Tables 4-7.

The subject of the next data set is rice and other crops. In words: Comparison experiment (post-emergence, Tables 4-7), crop safety. The conditions noted are these: dose of 125, 60, 30, 15 g/ha.
Excerpt: as §1, §2, §3

For a further data set, the system named is Abutilon theophrasti. The data set is described as follows: Weeding effect in post-emergence stage. The conditions noted are these: 250 g/ha; 2 leaf stage; 15 days after application; fresh weight control rate. The method in brief:
(§4)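 Activity graded 0 (<5%) to 5 (>85%) from fresh-weight control rate, averaged over three repeats, 15 days after a spray-tower application. Plants at 2-leaf stage (2 weeks post-sowing) received 15–500 g/ha of compound formulated in acetone, Tween 80 and methyl oleate synergist (1.5 L/ha).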

The test system of another data set is Setaria viridis. The data set is described as follows: Weeding effect in post-emergence stage. The conditions noted are these: 250 g/ha; 2 leaf stage; 15 days after application; fresh weight control rate. The method in brief:
as §4

The next data set deals with Amaranthus retroflexus. In words: Weeding effect in post-emergence stage. The conditions noted are these: 250 g/ha; 2 leaf stage; 15 days after application; fresh weight control rate. An outline of the steps: as §4
The test system of another data set is Echinochloa crusgali. The data set is described as follows: Weeding effect in post-emergence stage. The conditions noted are these: 250 g/ha; 2 leaf stage; 15 days after application; fresh weight control rate. An outline of the steps: as §4
The subject of a further data set is Digitaria sanguinalis. In words: Weeding effect in post-emergence stage. The conditions noted are these: 250 g/ha; 2 leaf stage; 15 days after application; fresh weight control rate. The method in brief: as §4

On to `CC[S@@+]([O-])c1c(C(F)(F)F)ccc(C(=O)Nc2nnc(C)o2)c1F` [Compound 2], for which the “activity to key weeds such as Digitaria sanguinalis, Leptochloa chinensis compared with the corresponding racemate or S configuration” value in data set [1] is given as “better activity”. Moreover, the “safety to rice and other crops compared with the corresponding racemate or S configuration” value with rice and other crops is “higher safety”. Besides, in the data set with Abutilon theophrasti, the “weeding effect in post-emergence stage, activity level (growth control rate), Abutilon theophrasti” value (shortened to “weeding effect … Abutilon theophrasti”) is 5 (Level 5: growth control rate is above 85%). Also, in the data set with Setaria viridis, the “weeding effect in post-emergence stage, activity level (growth control rate), Setaria viridis” value (shortened to “weeding effect … Setaria viridis”) was 4 (Level 4: growth control rate is greater than or equal to 60% and less than 85%). The “weeding effect in post-emergence stage, activity level (growth control rate), Amaranthus retroflexus” value (from here on “weeding effect … Amaranthus retroflexus”) with Amaranthus retroflexus is listed as 5 (Level 5: growth control rate is above 85%). In the data set with Echinochloa crusgali, the “weeding effect in post-emergence stage, activity level (growth control rate), Echinochloa crusgali” value (from here on “weeding effect … Echinochloa crusgali”) was 5 (Level 5: growth control rate is above 85%). Further, the “weeding effect in post-emergence stage, activity level (growth control rate), Digitaria sanguinalis” value (“weeding effect … Digitaria sanguinalis” below) in the data set with Digitaria sanguinalis is 4 (Level 4: growth control rate is greater than or equal to 60% and less than 85%).

With `CNCC[S@@+]([O-])c1c(C(F)(F)F)ccc(C(=O)Nc2nnc(C)o2)c1F` [Compound 67], in data set [1], the “activity to key weeds such as Digitaria sanguinalis, Leptochloa chinensis compared with the corresponding racemate or S configuration” value is on record as “better activity”. Also, in the data set on rice and other crops, the “safety to rice and other crops compared with the corresponding racemate or S configuration” value was “higher safety”. The “weeding effect … Abutilon theophrasti” value in the data set on Abutilon theophrasti is given as 5 (Level 5: growth control rate is above 85%). Besides, the “weeding effect … Setaria viridis” value in the data set with Setaria viridis was 5 (Level 5: growth control rate is above 85%). In addition, in the data set with Amaranthus retroflexus, the “weeding effect … Amaranthus retroflexus” value is listed as 5 (Level 5: growth control rate is above 85%). The “weeding effect … Echinochloa crusgali” value in the data set on Echinochloa crusgali is on record as 5 (Level 5: growth control rate is above 85%). In the data set on Digitaria sanguinalis, the “weeding effect … Digitaria sanguinalis” value is given as 5 (Level 5: growth control rate is above 85%).

Turning to `Cc1nnc(NC(=O)c2ccc(C(F)(F)F)c([S@+]([O-])CCC#N)c2F)o1` [Compound 52], the “activity to key weeds such as Digitaria sanguinalis, Leptochloa chinensis compared with the corresponding racemate or S configuration” value in data set [1] is “better activity”. Besides, the “safety to rice and other crops compared with the corresponding racemate or S configuration” value with rice and other crops is listed as “higher safety”. The “weeding effect … Abutilon theophrasti” value in the data set with Abutilon theophrasti was 5 (Level 5: growth control rate is above 85%). Also, the “weeding effect … Setaria viridis” value in the data set on Setaria viridis is reported as 5 (Level 5: growth control rate is above 85%). In the data set with Amaranthus retroflexus, the “weeding effect … Amaranthus retroflexus” value is 5 (Level 5: growth control rate is above 85%). In the data set on Echinochloa crusgali, the “weeding effect … Echinochloa crusgali” value is on record as 5 (Level 5: growth control rate is above 85%). Also, the “weeding effect … Digitaria sanguinalis” value with Digitaria sanguinalis was 5 (Level 5: growth control rate is above 85%).

Take `Cc1nnc(NC(=O)c2ccc(C(F)(F)F)c([S@+]([O-])CC3COC3)c2F)o1` [Compound 80]: the “activity to key weeds such as Digitaria sanguinalis, Leptochloa chinensis compared with the corresponding racemate or S configuration” value in data set [1] is “better activity”. Besides, in the data set on rice and other crops, the “safety to rice and other crops compared with the corresponding racemate or S configuration” value was “higher safety”. In addition, the “weeding effect … Amaranthus retroflexus” value in the data set with Amaranthus retroflexus is reported as 5 (Level 5: growth control rate is above 85%). For the same compound, the “weeding effect … Echinochloa crusgali” value with Echinochloa crusgali is 5 (Level 5: growth control rate is above 85%).

For `CC[S@@+]([O-])c1c(C(F)(F)F)ccc(C(=O)N(c2nnc(C)o2)C(C)OC(=O)OC)c1F` (stereo partly drawn) [Compound 248], the “activity to key weeds such as Digitaria sanguinalis, Leptochloa chinensis compared with the corresponding racemate or S configuration” value in data set [1] is reported as “better activity”. The “safety to rice and other crops compared with the corresponding racemate or S configuration” value in the data set with rice and other crops is “higher safety”. Also, the “weeding effect … Amaranthus retroflexus” value with Amaranthus retroflexus is given as 5 (Level 5: growth control rate is above 85%). Moreover, in the data set with Echinochloa crusgali, the “weeding effect … Echinochloa crusgali” value is 5 (Level 5: growth control rate is above 85%).

Turning to `Cc1nnc(NC(=O)c2ccc(C(F)(F)F)c([S@+]([O-])Cc3cn(C)nc3C)c2F)o1` [Compound 184], the “activity to key weeds such as Digitaria sanguinalis, Leptochloa chinensis compared with the corresponding racemate or S configuration” value in data set [1] is “better activity”. The “safety to rice and other crops compared with the corresponding racemate or S configuration” value with rice and other crops is listed as “higher safety”. Further, the “weeding effect … Amaranthus retroflexus” value in the data set with Amaranthus retroflexus is on record as 5 (Level 5: growth control rate is above 85%). The “weeding effect … Echinochloa crusgali” value with Echinochloa crusgali is 5 (Level 5: growth control rate is above 85%).

As to `COc1c(C(=O)Nc2nnc(C)o2)ccc(C(F)(F)F)c1[S@+]([O-])CCON=C(C)C` [Compound 348], the “herbicidal activity and/or crop safety compared with the corresponding racemate or S configuration” value in data set [1] (no dose stated) was “better herbicidal activity and/or crop safety”. Besides, in the data set with Abutilon theophrasti, the “weeding effect … Abutilon theophrasti” value is recorded as 5 (Level 5: growth control rate is above 85%). For the same compound, the “weeding effect … Setaria viridis” value in the data set with Setaria viridis was 5 (Level 5: growth control rate is above 85%). Besides, the “weeding effect … Amaranthus retroflexus” value with Amaranthus retroflexus is reported as 5 (Level 5: growth control rate is above 85%). Moreover, in the data set on Echinochloa crusgali, the “weeding effect … Echinochloa crusgali” value is recorded as 5 (Level 5: growth control rate is above 85%). Moreover, the “weeding effect … Digitaria sanguinalis” value in the data set with Digitaria sanguinalis is 5 (Level 5: growth control rate is above 85%).

With `CCCC[S@@+]([O-])c1c(C(F)(F)F)ccc(C(=O)Nc2nnc(C)o2)c1SC` [Compound 550], the “herbicidal activity and/or crop safety compared with the corresponding racemate or S configuration” value in data set [1] (dose of 120, 48, 30, 24 g/ha) is recorded as “better herbicidal activity and/or crop safety”. In the data set on Abutilon theophrasti, the “weeding effect … Abutilon theophrasti” value is 5 (Level 5: growth control rate is above 85%). Also, the “weeding effect … Setaria viridis” value in the data set on Setaria viridis is 5 (Level 5: growth control rate is above 85%). Besides, the “weeding effect … Amaranthus retroflexus” value in the data set with Amaranthus retroflexus is recorded as 5 (Level 5: growth control rate is above 85%). Besides, in the data set on Echinochloa crusgali, the “weeding effect … Echinochloa crusgali” value is given as 5 (Level 5: growth control rate is above 85%). In addition, in the data set with Digitaria sanguinalis, the “weeding effect … Digitaria sanguinalis” value is on record as 5 (Level 5: growth control rate is above 85%).

Consider `CCC[S@@+]([O-])c1c(C(F)(F)F)ccc(C(=O)Nc2nnnn2C)c1F` [Compound 379], for which the “herbicidal activity and/or crop safety compared with the corresponding racemate or S configuration” value in data set [1] (doses of 125, 60, 30, 15 g/ha, X replaced by other five membered rings) was “better herbicidal activity and/or crop safety”. Besides, in the data set on Abutilon theophrasti, the “weeding effect … Abutilon theophrasti” value was 5 (Level 5: growth control rate is above 85%). Besides, the “weeding effect … Setaria viridis” value in the data set with Setaria viridis is reported as 5 (Level 5: growth control rate is above 85%). Besides, the “weeding effect … Amaranthus retroflexus” value with Amaranthus retroflexus is 5 (Level 5: growth control rate is above 85%). The “weeding effect … Echinochloa crusgali” value in the data set with Echinochloa crusgali was 5 (Level 5: growth control rate is above 85%). The “weeding effect … Digitaria sanguinalis” value in the data set with Digitaria sanguinalis was 5 (Level 5: growth control rate is above 85%).

As to `CCC[S@@+]([O-])c1c(C(F)F)ccc(C(=O)Nc2nnc(C)o2)c1OC` [Compound 864], in data set [1] (no dose stated), the “herbicidal activity and/or crop safety compared with the corresponding racemate or S configuration” value was “better herbicidal activity and/or crop safety”. In addition, the “weeding effect … Abutilon theophrasti” value in the data set on Abutilon theophrasti is 5 (Level 5: growth control rate is above 85%). In addition, the “weeding effect … Setaria viridis” value in the data set with Setaria viridis is given as 5 (Level 5: growth control rate is above 85%). Moreover, the “weeding effect … Amaranthus retroflexus” value in the data set on Amaranthus retroflexus was 5 (Level 5: growth control rate is above 85%). The “weeding effect … Echinochloa crusgali” value in the data set with Echinochloa crusgali is on record as 5 (Level 5: growth control rate is above 85%). Also, the “weeding effect … Digitaria sanguinalis” value with Digitaria sanguinalis is reported as 5 (Level 5: growth control rate is above 85%).

As for `CSc1c(C(=O)Nc2nnc(C)o2)ccc(C(F)(F)F)c1[S@+]([O-])CC1CC1` [Compound 554], in data set [1] (dose of 120, 48, 30, 24 g/ha), the “herbicidal activity and/or crop safety compared with the corresponding racemate or S configuration” value is on record as “better herbicidal activity and/or crop safety”. Moreover, in the data set with Abutilon theophrasti, the “weeding effect … Abutilon theophrasti” value is listed as 5 (Level 5: growth control rate is above 85%). The “weeding effect … Setaria viridis” value in the data set on Setaria viridis is 5 (Level 5: growth control rate is above 85%). Also, the “weeding effect … Amaranthus retroflexus” value in the data set with Amaranthus retroflexus was 5 (Level 5: growth control rate is above 85%). Moreover, the “weeding effect … Echinochloa crusgali” value with Echinochloa crusgali is recorded as 5 (Level 5: growth control rate is above 85%). In the data set on Digitaria sanguinalis, the “weeding effect … Digitaria sanguinalis” value is 5 (Level 5: growth control rate is above 85%).
